Measurements published in patent publication US20230144845A1 (The Regents of the University of California, priority 2016, published 2023).
Entries after “also recorded” stand apart in the source; their conditions may differ.

What was measured:
Format in all cases: in vivo
C. elegans = experiment: Lifespan of adult worms (C. elegans); details: P<0.0001 (log-rank test) vs vehicle
6-week old C57/B6 mice [1] = experiment: Topical treatment of shaved dorsal skin of young mice: pigmentation and hair growth; details: 16 mM in Transdermal Gel, topical every other day, vs control
Experimental: Mice were topically (unless indicated otherwise) treated every other day with the indicated amount and photos were taken every week. Mice were monitored for the appearance of skin pigmentation, signaling the initiation of anagen. No hair growth (and no pigmentation) was assigned the arbitrary value of 0. Skin darkening was given a value from 0 to 100%, with the higher number indicating darker skin and visible hair growth.
Compounds were dissolved in Transdermal Gel at 16 mM and applied on mice dorsal skin every other day. To show the pigmentation progression, the appearance of skin pigmentation, signaling the initiation of anagen, was assigned an arbitrary value based on skin darkening. No hair growth (and no pigmentation) was assigned a value of 0 and darker skin/visible hair growth was assigned with higher numbers. Photos were taken weekly to document the pigmentation/hair changes.
Dorsal hair was shaved by trimmer at Week 7 and α-KB acid was dissolved in Transdermal Gel at 16 mM and applied on mice dorsal skin every other day.

[2] = system: 101-week old C57BL/6J mice; experiment: Oral α-KB in drinking water in aged mice: survival, aging traits, hair
Experimental: (§1) Additionally, α-KG was administrated in drinking water to 6-week old C57/B6 mice for 10 weeks. α-KG was dissolved at 16 mM and water was changed every other day to ensure the integrity of the compound. Oral administration of α-KB was tested in 101-week old C57/B6 mice and lasted for 30 weeks. The concentration of α-KB was 8 mM and water was changed weekly. Pigmentation/hair changes were also monitored by assigning arbitrary values and photos.
Based on the lifespan extending effects of α-KB in C. elegans (FIG. 2), the anti-aging properties in mice were examined. Aged 101-week old C57BL/6J mice were treated with 8 mM α-KB acid dissolved in drinking water for up to 30 weeks.

6-week old C57/B6 mice [3] = experiment: Oral α-KG in drinking water in young mice: hair growth; details: 16 mM in drinking water, 10 weeks, vs negative controls
Experimental: as §1

Row | SMILES | mean lifespan (days of adulthood) (C. elegans) | hair growth (6-week old C57/B6 mice [1]) | skin pigmentation (initiation of anagen) (6-week old C57/B6 mice [1]) | aging traits (such as cataracts) ([2]; aged mice, 8 mM in drinking water) | age-related hair loss / hair pigmentation and density on dorsal skin ([2]; aged mice, not shaved, 8 mM in drinking water, vs control) | lifespan / survival of old male mice ([2]; old male C57BL/6J mice, 8 mM in drinking water from 101 weeks for up to 30 weeks, P=0.0476 (Fisher's exact test)) | hair growth after oral administration (6-week old C57/B6 mice [3])
1 | CC[C@H](O)C(=O)O [2-HB, 2-hydroxybutyrate] | 19.8 days of adulthood | had hair growing back faster; also recorded: accelerated pigmentation and hair growth on Day 14 | showed pigmentation earlier; also recorded: pigmentation improved; also recorded: accelerated pigmentation | – | – | – | –
2 | CCC(=O)C(=O)O [α-KB, alpha-ketobutyrate] | 22.4 days of adulthood | hair growth was accelerated; also recorded: stimulates hair growth by Day 14 | started to show pigmentation patches after one week; also recorded: improved pigmentation | prevented aging traits in aged mice | exhibited black and thick hair; also recorded: delays or reduces age-related hair loss | significantly increased survival to beyond 131 weeks of age in male animals; also recorded: increases the lifespan of old male C57BL/6J mice | –
3 | O=C(O)CCC(=O)C(=O)O [α-KG, alpha-ketoglutarate] | 26.1 days of adulthood | – | – | – | – | – | confirmed its effects for hair growth; also recorded: significantly induces hair growth
